Data reported in US7122326B2 (Universite Louis Pasteur, priority 2001, dated 2006).
Entries after “also recorded” stand apart in the source; their conditions may differ. Where two headings read alike, the source gives them in different places.

Columns and labels:
[1] = biological target: xanthurenic acid binding site(s); assay: [3H]-XA binding to synaptic membranes in the presence of copper ions; set-up: species or system rat; settings: pH 6.5
[2] = system: extracellular dopamine release in the PFC; assay: Microdialysis of dopamine, DOPAC and HVA in PFC after local XA; settings: rat, in vivo
Protocol: • Animals: Adult male Wistar rats weighing 250 to 275 g were housed in pairs in plastic cages with a standard 7 a.m.–7 p.m. light cycle and free access to food and water. Animals studies were conducted in accordance with the requirements of the EEC directive of 24 Nov. 1986 (86/609/EEC). • Chemicals: XA, 6-OHDA hydrobromide, 2,4,5-trihydroxyphenylethylamine and desipramine were purchased from Sigma. NCS-486 was produced by the Laboratoire de Pharmacochimie of the CNRS in Strasbourg. • Surgical protocol: An L-shaped cannula with 4 mm tip (CMA 12, Carnegie, Sweden) was used for the experiments. The dialysis membrane, 500 μm in diameter, was made of polycarbonate-polyether with a 20 Kda cutoff. The probe guide was implanted in the PFC under stereotactic guidance. Animals were anesthetized with ketamine hydrochloride (150 mg/kg i.p.)
The experiments were carried out in conscious rats with and without induced lesions, 24 to 48 hours after surgical insertion of the microdialysis probe. The composition of the microdialysis medium was as follows: 147 mM NaCl; 1.2 mM CaCl2; 1.2 mM MgCl2; 4.0 mM KCl, pH 6.5. The dialysis rate was 1 μl/min (CMA 100 pump, Carnegie). Dialysates were collected in 20 minute fractions and stored immediately in liquid nitrogen pending analysis.
These compounds were analyzed by HPLC with electrochemical detection. The chromatographic system consisted of a 25 cm×4.6 mm C18 column maintained at a constant temperature of 30° C. The mobile phase was 50 mM NaH2PO4 containing 0.1 mM EDTA and 6% methanol, the pH of the solution was adjusted to 4.85.
Retrodialyzed XA concentrations were respectively 1 μM (black circles), 5 μM (black squares) and 20 μM (black triangles). XA was applied during a 20 minute dialysis. The results are expressed as the percentage of mean baseline dopamine release (determined on eight 20-min dialysis fractions prior to stimulation by XA) (FIG. 20).

[3] = system: xanthurenic acid receptor(s); format: cell-based
[4] = system: glutamate release in the frontal cortex; assay: Frontal extracellular glutamate release after retrodialysis of XA; settings: rat, in vivo
Protocol: Amino acids contained in 15 μl of dialysate were separated according to their hydrophobicity by reverse phase high performance liquid chromatography (HPLC). […] The mobile phase was composed of a binary gradient between solution A: 0.05 M NaH2PO4 (Roth) 80% (pH 4.8 adjusted with 10 N NaOH), methanol 20% (Chromanorm, Prolabo); and solution B: 0.05 M NaH2PO4 20% (pH 4.8 ajusted with 10 N NaOH), methanol 80% and THF 5%. Glutamate and GABA were measured by fluorimetric detection at an excitation wavelength of 345 nm and an emission wavelength of 455 nm after derivatization. Chromatogram acquisition and quantitative data analysis were done with Millenium software (Waters).
The samples were derivatized by mixing 15 μl of dialysate with 15 μl of the following derivatization solution: 7.5 mg o-phthaldialdehyde (Sigma) in 4.5 ml of 0.1 M sodium tetraborate pH 9.3, 500 μl of methanol and 10 μl of 3-mercapto-propionic acid (Sigma). The elution rate was 0.8 ml/min at 35° C. in a series of steps: 90% A and 10% B at 0 min; 40% A and 60% B to 15 min (linear gradient); 40% A and 60% B to 19 min (isocratic gradient); 0% A and 100% B to 19.1 min; 0% A and 100% B to 24 min (isocratic gradient); 90% A and 10% B to 24.1 min (isocratic gradient) and 90% A and 10% B to 30 min. […]

[5] = system: rat; assay: Rotations in rats with unilateral 6-OHDA lesions; format: in vivo; settings: rat, in vivo
[6] = system: mice; settings: mouse, in vivo; cited from earlier work
[7] = system: rat; assay: Social interactions between two congeners; settings: in vivo
Text: This tendency was confirmed by a test evaluating social interactions between two congeners (Ramos et al., Behav. Brain Res., 1997, 85: 57–69).

[8] = system: rat; assay: Porsolt test (swimming test); settings: in vivo
Protocol: The following doses were used: 50, 100, 150 and 200 mg/kg i.p.
This test has been validated with imipramine 30 mg/kg. The test described by Porsolt et al., Eur. J. Pharmacol. 1978, 47: 379–391, was used.

O=C(O)c1cc(O)c2cccc(O)c2n1 [XA, xanthurenic acid]
IC50 ([1]; read-out: IC50, two site binding model, first site): 1 µM | IC50 ([1]; read-out: IC50, two site binding model, second site): 114 µM | Kd ([1]; read-out: Kd (saturation experiment)): 7.56 µM | DOPAC release in PFC [2]: decreased slightly | HVA release in PFC [2]: decreased slightly | effect on dopamine release in PFC [2]: had no effect on dopamine release | increase of extracellular dopamine release in PFC [2]: approximately 250% | factor of increase of current amplitude at the peak of the transient current [3]: 5 factor | factor of increase of current amplitude, on average [3]: 5.0±1.7 factor | inversion potential, onset of the response [3]: −16.5 mV | inversion potential, second phase of the response [3]: −4.2 mV | mean outflux current [3]: considerably increased | decrease in GLU release [4]: 37% | controlateral rotations induced by apomorphine [5]: did not antagonize; also recorded: did not modify the number of controlateral rotations | ipsilateral rotations induced by amphetamine [5]: had no effect | head twitch behavior [6]: does not induce head twitch behavior | duration of social interactions [7]: significant increase in the duration of social interactions; also recorded: induces an increase in the duration of social interactions | sedation in the social interaction test [7]: significant sedative effect | cumulative duration of immobility [8]: statistically significant decrease in the cumulative duration of immobility; also recorded: duration of immobility decreases with increasing doses
